Experimental data taken from US20240101546A1, “HETEROARYL-ACETYLENES, PHARMACEUTICAL COMPOSITIONS THEREOF, AND THEIR THERAPEUTIC APPLICATIONS” (Eubulus Biotherapeutics Inc., priority 2020, published 2024).
pEC50: −log10 of the molar value.

System: lung cancer cell line NCI-H82
Experiment: Cell proliferation assay, NCI-H82 (CELL-TITER GLO)
Format: cell-based
Settings: Homo sapiens, NCI-H82, 72 h, NCI-H82 cells, 72 h incubation, cell viability by CELL-TITER GLO, top concentration 1 μM; read-out: EC50, Inhibition of NCl-H82 Cell Proliferation
In short: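 NCI-H82 cells, 1,000 per well in RPMI1640, were treated after overnight plating with a 3-fold dilution series from 1 μM. Viability read by CellTiter-Glo luminescence after 72 h. EC50 derived from the curves.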

pEC50 | Structure (SMILES)
≥ 6.70 | C#Cc1nc(NC(=O)NCC2CCC(c3cccc(C4(C#N)CC4)c3)CC2)cs1 (stereo not shown) [Compound A238, 1-((4-(3-(1-Cyanocyclopropyl)phenyl)cyclohexyl)methyl)-3-(2-ethynylthiazol-4-yl)urea]
≥ 6.70 | C#Cc1nc(NC(=O)NCC2CC=C(c3cccc(C4(C#N)CC4)c3)CC2)cs1 (stereo not shown) [Compound A239, 1-((3′-(1-Cyanocyclopropyl)-2,3,4,5-tetrahydro-[1,1′-biphenyl]-4-yl)methyl)-3-(2-ethynylthiazol-4-yl)urea]
≥ 6.70 | C#Cc1nc(NC(=O)NCC2CCN(c3cccc(C4(C#N)CC4)c3)CC2)cs1 [Compound A240, 1-((1-(3-(1-Cyanocyclopropyl)phenyl)piperidin-4-yl)methyl)-3-(2-ethynylthiazol-4-yl)urea]
≥ 6.70 | C#Cc1nccc(NC(=O)N[C@@H](CO)c2ccc(-c3cccc4ncsc34)cc2)n1 [Compound A241, (R)-1-(1-(4-(Benzo[d]thiazol-7-yl)phenyl)-2-hydroxyethyl)-3-(2-ethynyl-pyrimidin-4-yl)urea]
≥ 6.70 | C#Cc1nc(NC(=O)N2CCN(c3ccc(-c4cccc(N5CCCC5)c4)cc3)CC2)cs1 [Compound B15, N-(2-Ethynylthiazol-4-yl)-4-(3′-(pyrrolidin-1-yl)-[1,1′-biphenyl]-4-yl)piperazine-1-carboxamide]
≥ 6.70 | C#Cc1nc(NC(=O)N2CCN(c3ccc(-c4cccc5c4cnn5C)cc3)CC2)cs1 [Compound B18, N-(2-Ethynylthiazol-4-yl)-4-(4-(1-methyl-1H-indazol-4-yl)phenyl)piperazine-1-carboxamide]
≥ 6.70 | C#Cc1nc(NC(=O)N2CCN(c3ccc(-c4cccc5ncsc45)cc3)C[C@H]2CO)cs1 [Compound B23, (S)-4-(4-(Benzo[d]thiazol-7-yl)phenyl)-N-(2-ethynylthiazol-4-yl)-2-(hydroxy-methyl)piperazine-1-carboxamide]
≥ 6.70 | C#Cc1nc(NC(=O)N2CCN(c3ccc(-c4cccc5ncsc45)cc3)C[C@@H]2CO)cs1 [Compound B24, (R)-4-(4-(Benzo[d]thiazol-7-yl)phenyl)-N-(2-ethynylthiazol-4-yl)-2-(hydroxy-methyl)piperazine-1-carboxamide]
≥ 6.70 | C#Cc1nc(NC(=O)N2CCN(c3ccc(-c4c(C#N)ccc5nc(N)sc45)cc3)CC2)cs1 [Compound B25, 4-(4-(2-Amino-6-cyanobenzo[d]thiazol-7-yl)phenyl)-N-(2-ethynylthiazol-4-yl)-piperazine-1-carboxamide]
≥ 6.70 | C#Cc1nc(NC(=O)N2CCN(c3ccc(-c4cccc5nc(N)sc45)cc3)CC2)cs1 [Compound B27, 4-(4-(2-Aminobenzo[d]thiazol-7-yl)phenyl)-N-(2-ethynylthiazol-4-yl)piperazine-1-carboxamide]
≥ 6.70 | C#Cc1nc(NC(=O)N2CCN(c3ccc(-c4cccc5nnsc45)cc3)CC2)cs1 [Compound B28, 4-(4-(Benzo[d][1,2,3]thiadiazol-7-yl)phenyl)-N-(2-ethynylthiazol-4-yl)piperazine-1-carboxamide]
≥ 6.70 | C#Cc1nc(NC(=O)N2CCN(c3ccc(-c4cccc(N5CCCC5)c4)cc3)C[C@H]2CO)cs1 [Compound B52, (S)—N-(2-Ethynylthiazol-4-yl)-2-(hydroxymethyl)-4-(3′-(pyrrolidin-1-yl)-[1,1′-biphenyl]-4-yl)piperazine-1-carboxamide]
≥ 6.70 | C#Cc1nc(NC(=O)N2CCN(c3ccc(-c4cccc(N5CCCC5)c4)cc3C#N)C[C@@H]2CO)cs1 [Compound B53, (R)-4-(3-Cyano-3′-(pyrrolidin-1-yl)-[1,1′-biphenyl]-4-yl)-N-(2-ethynylthiazol-4-yl)-2-(hydroxymethyl)piperazine-1-carboxamide]
≥ 6.70 | C#Cc1nc(NC(=O)N2CCN(c3ccc(-c4cccc(N5CCCC5)c4)cc3)C[C@@H]2CO)cs1 [Compound B54, (R)—N-(2-Ethynylthiazol-4-yl)-2-(hydroxymethyl)-4-(3′-(pyrrolidin-1-yl)-[1,1′-biphenyl]-4-yl)piperazine-1-carboxamide]
≥ 6.70 | C#Cc1nc(NC(=O)N2CCN(c3ccc(-c4cccc(N5CCCC5)c4)cn3)C[C@@H]2CO)cs1 [Compound B56, (R)—N-(2-Ethynylthiazol-4-yl)-2-(hydroxymethyl)-4-(5-(3-(pyrrolidin-1-yl)-phenyl)pyridin-2-yl)piperazine-1-carboxamide]
≥ 6.70 | C#Cc1nc(NC(=O)N2CCN(c3ncc(-c4cccc5ncsc45)cc3C#N)C[C@@H]2CO)cs1 [Compound B59, (R)-4-(5-(Benzo[d]thiazol-7-yl)-3-cyanopyridin-2-yl)-N-(2-ethynylthiazol-4-yl)-2-(hydroxymethyl)piperazine-1-carboxamide]
